Measured values published in US20220105183A1, “MICRO-NANO STRUCTURE FORMED BY SELF-ASSEMBLING ORGANIC SMALL MOLECULE COMPOUND AND USE THEREOF” (Qingdao University of Science and Technology, priority 2018, published 2022).

Columns and labels:
Format in all cases: physicochemical
[1] = DLS particle size / self-assembly of the compounds in aqueous solution; conditions: 20 μM working solution in deionized water; for DLS particle size peak (nm) / DLS particle size range (nm): micro-nano structure
Experimental: The term “particle size” refers to the size of particles, also known as “granularity” or “diameter”. When a certain physical characteristic or physical behavior of the measured particle is closest to a homogeneous sphere (or combination) of a certain diameter, the diameter (or combination) of the sphere is taken as the equivalent particle size of the measured particle. The particle size parameter of the micro-nano structure of the present invention is measured by the principle of dynamic light scattering (DLS), specifically measured by a laser particle size analyzer.
(§1) Taking the self-assembled micro-nano structure of Compound II-1 as an example, II-1 was dissolved in DMSO (also can be an organic solvent such as ethanol) to prepare a 2 mM storage solution, and a small amount of storage solution was added to deionized water to prepare 20 μM working solution. Took 10 μL and dropped it on copper mesh, observed and analyzed under transmission electron microscope (TEM), cryo-transmission electron microscope. Took 10 μL and dropped it on mica plate, observed and analyzed under atomic force microscope (AFM). In FIGS. 5, A, B, C and D were TEM photographs, cryo-transmission electron microscope photographs, AFM photographs, and AFM analysis data, respectively. According to the photographs and data, II-1 was self-assembled into nanosheets with a diameter of 40-70 nm and a thickness of 3.7-3.9 nm. […]
Among them, the particle size test results of II-12 to II-15 in aqueous solution are shown in FIG. 6, and the results of dynamic light scattering DLS of II-16 to 1-18 are shown in FIG. 7).

[2] = TEM, cryo-TEM and AFM of the self-assembled micro-nano structure; conditions: micro-nano structure in aqueous solution, AFM and TEM
Experimental: as §1

[3] = Photothermal effect in vitro under 808 nm laser irradiation; conditions: for light-to-heat conversion efficiency: 20 μM in water; for light-to-heat conversion efficiency / photothermal effect: 808 nm (2.6 W/cm-2) laser 10 minutes; for temperature rise: 40 μM in water, 808 nm (2.6 W/cm-2) laser, within 10 minutes; for photothermal effect: in water
Experimental: A total of 4 groups of samples, 3 mL was taken and added to a cuvette respectively, and the lid was sealed.
The sample No. 2 was 10 μM II-1, and the specific preparation method is 3 mL deionized water plus 15 μL II-1 stock solution (2 mM, dissolved in DMSO);
The sample No. 3 was 20 μM II-1, and the specific preparation method was that 3 mL deionized water was added 30 μL II-1 stock solution (2 mM, dissolved in DMSO);
The sample No. 4 was 40 μM II-1, and the specific preparation method was that 3 mL deionized water was added 60 μL II-1 stock solution (2 mM, dissolved in DMSO).
Each sample was irradiated with an 808 nm laser for 5 minutes, and the temperature data was recorded every 5 seconds with a thermal imager, and the temperature corresponding to the time was plotted in origin, as shown in the left figure of FIG. 8. […] The temperature of sample No. 2 increased from room temperature 30° C. to 54° C., and the temperature was raised by 24° C. The temperature of sample No. 3 increased from room temperature 30° C. to 62° C., and the temperature was raised by 32° C. The temperature of sample No. 4 increased from room temperature 30° C. to 77° C., and the temperature was raised by 47° C.
Using a method similar to Example 8, 10 μM, 20 μM and 40 μM samples of II-16, II-17 and II-18 were prepared, respectively, they were irradiated under an 808 nm (2.6 W/cm-2) laser for 10 minutes. 40 μM II-16 to 18 samples can rise by 40° C., 36° C. and 18° C. respectively within 10 minutes under laser irradiation.
Using a method similar to that in Example 8, three samples of 20 μM of 1-16, II-17 and II-18 in water were irradiated with 808 nm (2.6 W/cm-2) laser for 10 minutes, and the light-to-heat conversion efficiency calculation result thereof were shown in FIG. 10. […] And II-18 not only has poor light-heat effect, but also has low light-heat conversion efficiency, only 12.9%.

[4] = Photothermal stability, repeated 808 nm irradiation and cooling; conditions: for reduction of absorbance after 5 times of irradiation: ultraviolet spectra before and after
Experimental: We selected sample No. 3 to test the photothermal stability experiment. As shown in the right figure of FIG. 8, sample No. 3 was irradiated with 808 nm laser for 9 minutes and then the temperature increased from room temperature 30° C. to 62° C., and then allowed to naturally cool down to room temperature, and irradiated with 808 nm laser again for 9 minutes, then naturally cooled down, and repeated for 5 times. […] After 9 minutes of irradiation, the temperature was raised by […], and then returned to room temperature.

[5] = Assembly stability in different media
Experimental: Since II-16 has excellent photothermal properties, its assembly stability in serum-containing medium and in PBS at different temperatures was tested, as shown in FIG. 13.

[6] = 808 nm laser at 2.6 W/cm-2, irradiated and cooled 5 times

CCN1C(=CC=C2CCCC(C=CC3=C(C#N)C(=C(C#N)C#N)OC3(C)C)=C2Cl)C(C)(C)c2ccc3ccccc3c21 [II-14]
DLS particle size peak (nm) [1]: 78 nm
DLS particle size range (nm) [1]: 27-134 nm
Morphology [2]: nano-sheet

CCN(CC)c1ccc2c(c1)OC1=C(C=C3CCCC(C=CC4=C(C#N)C(=C(C#N)C#N)OC4(C)C)=C3Cl)CCCC1=C2 [II-18]
DLS particle size peak (nm) [1]: 42 nm
DLS particle size range (nm) [1]: 42-139 nm
light-to-heat conversion efficiency [3]: 12.9%
temperature rise [3]: 18 °C
photothermal effect [3]: poor photothermal effect
Morphology [2]: nano-sheet

CC1(C)C(/C=C/C=C/C=C/C=C2\N(CCCCS(=O)(=O)[O-])c3ccc4ccccc4c3C2(C)C)=[N+](CCCCS(=O)(=O)[O-])c2ccc3ccccc3c21.[Na+] [ICG, reference compound]
particle size by DLS [1]: could not be detected
temperature raised by, first irradiation ([4]; 808 nm laser, after 9 minutes of irradiation): 15 °C
temperature on laser irradiation again ([4]; after return to room temperature, second irradiation): the temperature cannot be increased

CCn1c(=CC=C2CCCC(C=CC3=C(C#N)C(=C(C#N)C#N)OC3(C)C)=C2Cl)c2cccc3cccc1c32 [II-16]
DLS particle size peak (nm) [1]: 199 nm
DLS particle size range (nm) [1]: 163-293 nm
temperature in repeated irradiations [4, 6]: each time the temperature can rise to the same temperature as the first time
reduction of absorbance after 5 times of irradiation [4, 6]: 2%
absorbance over time ([5]; at 37° C.): the absorbance will decrease with time
aggregation mode (H aggregation) ([5]; serum-containing medium and PBS at different temperatures): will not change due to changes in external conditions
light-to-heat conversion efficiency [3]: 56.9%
temperature rise [3]: 40 °C
photothermal effect [3]: excellent photothermal effect
Morphology [2]: nano-sheet

CCN1C(=CC=C2CCCC(C=CC3=C(C#N)C(=C(C#N)C#N)OC3(C)C)=C2Cl)Sc2ccccc21 [II-17]
DLS particle size peak (nm) [1]: 10 nm
DLS particle size range (nm) [1]: 10-86 nm
reduction of absorbance after 5 times of irradiation [4, 6]: 75%
light-to-heat conversion efficiency [3]: 25%
temperature rise [3]: 36 °C
photothermal effect [3]: excellent photothermal effect
Morphology [2]: nano-sheet

C#CCOc1ccc(C2CC(=CC=C3N(CC)c4ccccc4C3(C)C)C(NCCn3ccnc3[N+](=O)[O-])=C(C=CC3=C(C#N)C(=C(C#N)C#N)OC3(C)C)C2)cc1 (centres unmarked) [II-15]
DLS particle size peak (nm) [1]: 60 nm
DLS particle size range (nm) [1]: 40-110 nm
Morphology [2]: nano-sheet

C=CCOc1ccc(C2CC(=CC=C3N(CC)c4ccccc4C3(C)C)C(Cl)=C(C=CC3=C(C#N)C(=C(C#N)C#N)OC3(C)C)C2)cc1 (centres unmarked) [II-12]
DLS particle size peak (nm) [1]: 78 nm
DLS particle size range (nm) [1]: 20-160 nm
Morphology [2]: nano-sheet

C#CCOc1ccc(C2CC(=CC=C3N(CC)c4ccccc4C3(C)C)C(Cl)=C(C=CC3=C(C#N)C(=C(C#N)C#N)OC3(C)C)C2)cc1 (centres unmarked) [II-13]
DLS particle size peak (nm) [1]: 74 nm
DLS particle size range (nm) [1]: 40-110 nm
Morphology [2]: nano-sheet
